# Test results reported in patent US7342004B2, “Thioether sulphamate steroids as steroid inhibitors and anti-cancer compounds” (Sterix Ltd., priority 2000, dated 2008).
# What was measured:
# steroid sulphatase (STS) = biological target: T1, steroid sulphatase (STS) (Homo sapiens, UniProt P08842); assay: Inhibition of steroid sulphatase activity in placental microsomes, Protocol 4; assay type: biochemical; details: for IC50: placental microsomes; for inhibition at 0.01 µM: read-out: Placental Microsomes, % inhibition 10 nM; for inhibition at 1 µM: read-out: Placental Microsomes, % inhibition 1 μM
# T1 sequence (P08842 22-583): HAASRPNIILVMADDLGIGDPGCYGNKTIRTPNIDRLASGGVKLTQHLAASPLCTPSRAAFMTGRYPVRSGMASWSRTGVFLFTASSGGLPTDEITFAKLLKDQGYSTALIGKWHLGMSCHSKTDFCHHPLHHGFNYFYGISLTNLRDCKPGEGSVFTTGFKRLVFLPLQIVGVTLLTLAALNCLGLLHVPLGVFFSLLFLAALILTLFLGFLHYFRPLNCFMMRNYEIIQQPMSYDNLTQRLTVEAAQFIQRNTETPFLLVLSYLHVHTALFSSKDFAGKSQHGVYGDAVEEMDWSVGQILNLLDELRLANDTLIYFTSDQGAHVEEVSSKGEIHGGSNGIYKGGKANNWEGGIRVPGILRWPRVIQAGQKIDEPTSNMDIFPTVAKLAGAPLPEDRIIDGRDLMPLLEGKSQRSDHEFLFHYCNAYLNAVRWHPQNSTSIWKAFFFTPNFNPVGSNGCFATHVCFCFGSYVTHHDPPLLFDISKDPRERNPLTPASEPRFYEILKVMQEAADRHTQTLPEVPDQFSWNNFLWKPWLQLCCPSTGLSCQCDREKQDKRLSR
# Description: Sulphatase-positive human placenta from normal term pregnancies are thoroughly minced with scissors and washed once with cold phosphate buffer (pH 7.4, 50 mM) then resuspended in cold phosphate buffer (5 ml/g tissue). Homogenisation is accomplished with an Ultra-Turrax homogeniser, using three 10 second bursts separated by 2 minute cooling periods in ice. Nuclei and cell debris are removed by centrifuging (4° C.) at 2000 g for 30 minutes and portions (2 ml) of the supernatant are stored at […] The protein concentration of the supernatants is determined by the method of Bradford (Anal. Biochem., 72, 248-254 (1976)).
# Incubations (1 ml) are carried out using a protein concentration of […], substrate concentration of […] [6,7-3H]oestrone-3-sulphate (specific activity 60 Ci/mmol from New England Nuclear, Boston, Mass., U.S.A.) and an incubation time of 20 minutes at 37° C. If necessary eight concentrations of compounds are employed: 0 (i.e. control); 0.05 mM; 0.1 mM; 0.2 mM; 0.4 mM; 0.6 mM; 0.8 mM; 1.0 mM. After incubation each sample is cooled and the medium (1 ml) was pipetted into separate tubes containing [14C]oestrone (7×10^3 dpm) (specific activity 97 Ci/mmol from Amersham International Radiochemical Centre, Amersham, U.K.). The mixture is shaken thoroughly for 30 seconds with toluene (5 ml). Experiments have shown that >90% [14C]oestrone and <0.1% [3H]oestrone-3-sulphate is removed from the aqueous phase by this treatment. A portion (2 ml) of the organic phase was removed, evaporated and the 3H and 14C content of the residue determined by scintillation spectrometry. The mass of oestrone-3-sulphate hydrolysed is calculated from the 3H counts obtained (corrected for the volumes of the medium and organic phase used, and for recovery of [14C]oestrone added) and the specific activity of the substrate.
# (§1) The STS inhibition provided by the compounds was determined in accordance with the placental microsomes assay of Protocol 4 and a plate assay.
# STS = assay: Plate assay, % inhibition; assay type: biochemical
# Description: as §1
# CuZnSOD = CuZnSOD (UniProt P00442); assay: Superoxide dismutase (SOD) spectrophotometric XTT assay, Protocol 1; assay type: biochemical; details: xanthine oxidase/XTT, 24° C., 30 minutes, read-out: IC 50/μM (+/− SEM) SOD Inhibition
# Description: In this reaction, 3′-{1-[(phenylamino)-carbonyl]-3,4-tetrazolium}-bis(4-methoxy-6-nitro)benzenesulfonic acid hydrate (XTT) is converted to a colourimetric product by the action of superoxide ions (produced by xanthine oxidase (XO) and xanthine). Production of superoxide ions is inhibited by SOD resulting in decreased product. The ability of test compounds to inhibit SOD is measured by their ability to restore production of the coloured product. Reactions were performed in a total volume of 0.1 ml of buffer A (42 mM Na2CO3 (pH 9.4), 0.1 mM xanthine (Sigma), 0.1 mM EDTA, 0.026 mM XTT (Sigma)).
# The reaction was incubated at 24° C. for 30 minutes and products determined by measuring absorobance at 470 nm. All determinations were made in duplicate/triplicate.
# SOD activity was measured in accordance with Protocol 1.
# Initial analyses were performed using test compounds at 100 μM.
# rat liver E1-STS = biological target: T2, rat liver E1-STS (Rattus norvegicus, UniProt P15589); details: administered either orally or subcutaneously; cited from earlier work
# T2 construct: from tissue; host or cells: rat liver (after oral or subcutaneous dosing)
# T2 sequence (P15589 20-577): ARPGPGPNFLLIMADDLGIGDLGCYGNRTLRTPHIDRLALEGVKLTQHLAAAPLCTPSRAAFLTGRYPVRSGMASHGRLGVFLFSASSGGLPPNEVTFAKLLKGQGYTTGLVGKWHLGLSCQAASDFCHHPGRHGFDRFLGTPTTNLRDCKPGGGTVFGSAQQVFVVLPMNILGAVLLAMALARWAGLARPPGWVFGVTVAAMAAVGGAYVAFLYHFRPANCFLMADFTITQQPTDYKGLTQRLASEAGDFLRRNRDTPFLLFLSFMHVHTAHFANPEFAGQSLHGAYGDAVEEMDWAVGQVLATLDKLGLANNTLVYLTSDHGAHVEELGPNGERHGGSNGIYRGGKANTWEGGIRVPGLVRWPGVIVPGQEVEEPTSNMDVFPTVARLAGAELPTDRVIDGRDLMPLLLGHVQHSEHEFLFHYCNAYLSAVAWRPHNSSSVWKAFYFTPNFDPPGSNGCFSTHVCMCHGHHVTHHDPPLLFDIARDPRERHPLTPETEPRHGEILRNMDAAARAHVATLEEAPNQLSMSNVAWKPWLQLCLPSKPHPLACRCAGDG
# DHA-STS = biological target: T3, DHA-STS (Rattus norvegicus, UniProt P15589); details: administered either orally or subcutaneously; cited from earlier work
# T3 construct: from tissue; host or cells: rat liver (after oral or subcutaneous dosing)
# T3 sequence (P15589 20-577): T2 sequence (P15589 20-577)
# uterus = details: cited from earlier work
# steroid sulphatase = biological target: T4, steroid sulphatase (Homo sapiens, UniProt P08842); details: cited from earlier work
# T4 sequence (P08842 22-583): T1 sequence (P08842 22-583)
# [1] = tested on: MCF7, CAL51, CAMA1 and ZR-75-1 breast cancer derived cell lines; assay: Cell cycle and apoptosis analysis in breast cancer cell lines; assay type: cell-based, human
# Description: MCF7, CAL51, CAMA1 and ZR-75-1 breast cancer derived cell lines were obtained from ATCC (MCF7, CAMA1, ZR-75-1) or from the Dutrillaux laboratory (CAL51) (22) and maintained in Dulbecco's modified Eagle's medium (DMEM) supplemented with 10% (v/v) fetal calf serum and antibiotics.
# DNA content was determined by flow cytometric analysis of propidium iodide stained cells and TdT-mediated dUTP-nick end labelling (TUNEL), respectively, as described (20). The proportion of cells in G2/M phase of the cell cycle was calculated as a proportion of cells with […] DNA content. The proportion of cells with <G1 DNA content was calculated as a percentage of total cells.
# To determine the proportion of cells in mitosis, drug treated cells were collected by trypsinisation and cytospins prepared. Cells were fixed in ice cold methanol for 5 minutes, air dried and DNA was stained using propidium iodide (PI) (0.1 mg/ml in phosphate buffered saline (PBS) containing 10% (v/v) newborn calf serum and 0.05% (w/v) sodium azide). Cells were analysed by confocal microscopy using a Zeiss Axiovert 100 M microscope equipped with the LSM 510 confocal system (Zeiss, Jena, Germany).
# We examined whether the differential sensitivity of breast cancer cell lines to the growth inhibitory effects of the compounds of the present invention.
SMILES,inhibition at 1 µM (steroid sulphatase (STS)) [%],"Plate Assay, % inhibition 0.1 μM (STS) [%]","Plate Assay, % inhibition 1 μM (STS) [%]","Plate Assay, % inhibition 10 μM (STS) [%]",IC50 (CuZnSOD) [µM],also measured
"CSc1cc2c(cc1OS(N)(=O)=O)CCC1C2CC[C@@]2(C)C1CC[C@@]2(O)Cc1ccccc1 (stereo in doubt) [Compound 30, Sulfamic acid 17-benzyl-17-hydroxy-13-methyl-2-methylsulfanyl-7,8,9,11,12,13,14, 15,16,17-decahydro-6H-cyclopenta[a]phenanthren-3-yl ester]",93,<1,<1,31,,"IC50 (steroid sulphatase (STS)): 0.044 µM; inhibition at 0.01 µM (steroid sulphatase (STS)): 15.5%; inhibition at 0.1 µM (steroid sulphatase (STS); read-out: Placental Microsomes, % inhibition 100 nM): 69.7%; inhibition at 10 µM (steroid sulphatase (STS); read-out: Placental Microsomes, % inhibition 10 μM): 97.4%"
"CSc1cc2c(cc1O)CCC1C2CC[C@]2(C)C(=O)CCC12 (some centres unmarked) [Compound 8, 2-methylsulfanylestrone]",,<1,1,11,21,
"CCSc1cc2c(cc1O)CCC1C2CC[C@]2(C)C(=O)CCC12 (some centres unmarked) [Compound 10, 2-ethylsulfanylestrone]",,<1,<4,14,79,
"CC12CCC3c4ccc(OS(N)(=O)=O)cc4CCC3C1CCC2=O (centres unmarked) [Compound 24, estrone-3-O-sulphamate, reference compound]",,,,,> 100,"inhibition of rat liver E1-STS activity (rat liver E1-STS): 99%; inhibition of rat liver DHA-STS activity (DHA-STS): 99%; oral uterotrophic activity in rats relative to estradiol (uterus; oral, rats, higher than that of estradiol): 100 times"
"COc1cc2c(cc1OS(N)(=O)=O)CC[C@@H]1[C@@H]2CC[C@]2(C)C(=O)CC[C@@H]12 [Compound 25, 2-methoxyestrone-3-O-sulphamate]",,,,,> 100,"oestrogenicity (uterus; rat, in vivo): devoid of oestrogenicity; potency as a steroid sulphatase inhibitor compared with EMATE (steroid sulphatase): equipotent with EMATE"
"CSc1cc2c(cc1O)CCC1C2CCC2(C)C1CCC2(O)Cc1ccc(C(C)(C)C)cc1 (centres unmarked) [Compound 31, 17-(4-tert-Butyl-benzyl)-13-methyl-2-methylsulfanyl-7,8,9,11,12,13,14,15,16,17-decahydro-6H-cyclopenta[a]phenanthrene-3,17-diol]",,<1,<1,50,,
"CSc1cc2c(cc1OS(N)(=O)=O)CCC1C2CCC2(C)C1CCC2(O)Cc1ccc(C(C)(C)C)cc1 (centres unmarked) [Compound 32, Sulfamic acid 17-(4-tert-butyl-benzyl)-17-hydroxy-13-methyl-2-methylsulfanyl-7,8,9,11,12,13,14,15,16,17-decahydro-6H-cyclopenta[a]phenanthren-3-yl ester]",81.8,<1,<1,48,,
CSc1cc2c(cc1OS(N)(=O)=O)CCC1C2CC[C@]2(C)C(=O)CCC12 (some centres unmarked) [Compound 36],86.9,3,53,55,,"IC50 (steroid sulphatase (STS)): 0.12 µM; Effect on cell morphology (rounding, detachment) [1]: induced cells to become rounded and detached from the plate/flask"
CCSc1cc2c(cc1OS(N)(=O)=O)CCC1C2CC[C@]2(C)C(=O)CCC12 (some centres unmarked) [Compound 38],66,<1,1,16,,inhibition at 0.01 µM (steroid sulphatase (STS)): < 5%
